Experimental data taken from PubChem BioAssay (NCI).
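Growth conditions: 96-well plates. Treatment: test compound, 48 hours, 5 concentrations. Analysis: linear interpolation between bracketing concentrations; unreached endpoints set to highest concentration. GI50 marks 50% less growth. TGI: concentration producing complete growth inhibition.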

How the values were obtained:
Assay in all cases: DTP human tumour cell line panel, 48 h
[1] = system: SNB-78 CNS
[2] = system: M14 melanoma
[3] = system: HOP-18 NSCLC
[4] = system: HL-60(TB) leukemia
[5] = system: M19-MEL melanoma
[6] = system: SNB-75 CNS
[7] = system: DLD-1 colon
[8] = system: DMS 273 small cell lung
[9] = system: DU-145 prostate
[10] = system: BT-549 breast
[11] = system: MCF7 breast
[12] = system: T-47D breast

Structure (SMILES)	TGI [1] [µM]	TGI [2] [µM]	TGI [3] [µM]	TGI [4] [µM]	TGI [5] [µM]	TGI [6] [µM]	TGI [7] [µM]	TGI [8] [µM]	GI50 [2] [µM]	GI50 [9] [µM]	TGI [9] [µM]	GI50 [4] [µM]	GI50 [10] [µM]	TGI [10] [µM]	GI50 [6] [µM]	GI50 [11] [nM]	TGI [11] [µM]	GI50 [12] [nM]	TGI [12] [µM]
CC(C)(C)C1CCC2c3c([nH]c4ccccc34)C3C(=O)N(c4ccccc4)C(=O)C3C2C1 (centres undefined)	19	19.7	9.73	30.6	23.7	6.04	> 100	15											
O=S1Nc2c(Cl)cc(Cl)c3c(Cl)cc(Cl)c(c23)N1		> 100	> 100	> 100	> 100	55.3	74.8	> 100											
CCn1c(-c2cc3ccccc3cc2O)nn(C(=O)c2c(Cl)cccc2Cl)c1=S		21.9		38.7		> 50			7.11	41.1	> 50	14.3	15.6	36.7	42.5	> 50000	> 50	21000	> 50
CCc1cc(CCC(=O)Nc2c(C)cccc2C)[nH]n1	> 100	> 100	> 100	> 100	> 100	> 100	> 100	> 100											
Cc1cc(Cl)ccc1NC(=O)C(=O)C(C(=O)c1ccc2ccccc2c1)C1OC(=O)c2ccccc21 (centres undefined)	49.9	34.3	18.1		29.7	49.2	30.4	37.1											
O=C(OCc1ncc(-c2ccc(C(F)(F)F)cc2)c(NC2CCCCCC2)n1)c1c(F)c(F)c(F)c(F)c1F		39.6		22		25.9			17.3	12.5	25.3	5.53	9	27.1	13	2060	5.81	1970	3.99
COc1cccc(C2c3cc4c(cc3OC(N3CCCC3)C2C)OCO4)c1O (centres undefined)		12.6		31.5		8.29					> 36.9			> 43			> 83.6		> 94.9
CN1C(=O)C(=O)c2cc3c(c4c2c1cc1ccccc14)OCO3	> 100	> 100	> 100	> 100	> 100	> 100	> 100	> 100											
Cn1c2ccc(Br)cc2c2c3c(c4c5ccccc5[nH]c4c21)C(=O)N(O)C3=O		0.307		1.85		0.425			0.0877	0.0871	0.57	0.301	0.149	0.45	0.164	40	0.309	109	0.737
Cc1cccc(C)c1NC(=O)Nc1ccc(S(N)(=O)=O)cc1		> 100		> 100		> 100					> 100			> 100			> 100		> 100
